Results reported in patent US20220411525A1, “BCMA AS A TARGET FOR T CELL REDIRECTING ANTIBODIES IN B CELL LYMPHOMAS” (Janssen Pharmaceutica NV, priority 2021, published 2022).

Tested on: B cell malignancy cell lines
Assay: Soluble BCMA ELISA in supernatants of cell lines
Format: cell-based
Conditions: 100 nM, 24 or 48h, both time points
Protocol: To evaluate whether other malignancies besides multiple myeloma (MM) can potentially be targeted by BCMA directed immunotherapy, B cell malignancy cell lines were assessed for BCMA expression by flow cytometry. […] Per FIG. 1A, B cell malignancy cell lines were cultured and basal levels of BCMA were assessed by flow cytometry and compared to isotype controls. (n=3-8). Dotted line indicates no increase compared to isotype control. In accordance with FIG. 1B, cell lines were treated for 24-48h with 100nM γ-secretase inhibitor or with medium control and BCMA was assessed by flow cytometry. Values are represented as fold increase compared to 0 nM γ-secretase inhibitor. (n=3-12) Dotted line indicates no increase compared to 0 nM γ-secretase inhibitor. FIG. 1C represents the results of an asssessment of soluble BCMA by ELISA in supernatants of B cell malignancy cell lines after treatment with 0 nM or 100 nM γ-secretase inhibitor for 24-48 h. (n=2). […] The P value was calculated by paired t test of Wilcoxon test (FIG. 1A-1B) or simple linear regression (FIG. 1E). […]
Since BCMA is known to be cleaved off by γ-secretase, it was evaluated whether inhibition of this enzyme would lead to enhanced BCMA levels on these B cell lines. […]
sBCMA ELISA. […] After 24 or 48 h supernatants were harvested and stored at −20° C. soluble BCMA (sBCMA) in supernatants were measured by ELISA using antibody pairs for BCMA.

C[C@H](NC(=O)[C@@H](O)c1cc(F)cc(F)c1)C(=O)N[C@@H]1C(=O)N(C)c2ccccc2-c2ccccc21 [Ly411575] was tested, and the “soluble BCMA (sBCMA) levels in supernatants” value was “strongly reduced”.
